Experimental data as given in patent US10336675B2, “Biaromatic vitamin D analogs” (DSM IP ASSETS B.V., priority 2015, dated 2019).

The molecules below were run against T1, human vitamin D receptor (VDR) (Homo sapiens, UniProt P11473) (assay: Human vitamin D receptor (VDR) agonist activity: GAL4-VDR LBD luciferase transactivation assay in transiently transfected HEK293 cells). Conditions: VDR LBD-GAL4 DBD fusion, pFR-Luc luciferase reporter, 16 h incubation, read-out: Effective concentrations of half maximal activation (EC50).
T1 construct: expressed in transfected cells; host or cells: HEK293 cells (ATCC), transient transfection with a GATEWAY-compatible pCMV-BD vector
T1 sequence (P11473 127-423 limits assumed): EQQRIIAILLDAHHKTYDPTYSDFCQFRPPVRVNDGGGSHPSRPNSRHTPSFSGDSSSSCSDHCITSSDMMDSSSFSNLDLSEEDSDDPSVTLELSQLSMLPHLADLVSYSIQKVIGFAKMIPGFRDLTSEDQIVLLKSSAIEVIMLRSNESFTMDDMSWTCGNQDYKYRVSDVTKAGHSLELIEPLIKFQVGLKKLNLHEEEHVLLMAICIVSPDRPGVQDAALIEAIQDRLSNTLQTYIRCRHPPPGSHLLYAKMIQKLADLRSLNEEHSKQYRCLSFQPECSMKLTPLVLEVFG
Assay type: cell-based
Text: By way of example, the human vitamin D receptor (VDR) agonist activity of the claimed compounds can be tested using a cell based transactivation assay in an eukaryotic cell line. After a co-transfection, using a reporter plasmid construct and a hybrid receptor construct containing the ligand-binding domain of the human VDR linked to the DNA-binding domain of the yeast transcription factor GAL4, the cultured cells were stimulated by the VDR agonists. The hybrid VDR-GAL4 receptor binds the VDR agonists and transactivates luciferase reporter expression through the GAL4-response elements in the promoter of the luciferase gene (reporter construct). The VDR agonist binding and transactivation is determined by measuring the luciferase luminescence activity. The effective concentration of half maximal activation (EC50) was determined for the VDR agonists by means of dose-response experiments. The details of the protocol method of this test according to the invention are described in the example section.
Testing of the Human Vitamin D Receptor (VDR) Agonist Activity of the Compounds
The transient transfections were performed in HEK293 cells (ATCC, Molsheim, France) grown in minimum essential medium (Eagle) with Earle's balanced salt solution without L-glutamine and supplemented with 10% fetal bovine serum (Sigma-Aldrich Corp., St. Gallen, Switzerland), 2 mM glutamax (Life Technologies AG, Basel, Switzerland), 0.1 mM non-essential amino acids (Life Technologies), and 1 mM sodium pyruvate (Life Technologies) at 37° C. in 5% CO2. For transfection, 7.5×10^4 cells were plated per well (80 μl) in white 96-well cell culture plates with clear bottom (Corning, Basel, Switzerland) in minimum essential medium (Eagle) with Earle's balanced salt solution without L-glutamine and without phenol red supplemented with 10% charcoal-treated fetal bovine serum (HyClone Laboratories, Inc., Logan, Utah, USA), 2 mM glutamax, 0.1 mM non-essential amino acids, and 1 mM sodium pyruvate. The cells were transiently transfected before stimulation the next day at >80% confluence by polyethylene-imine-based transfection. Compound stocks were prepared in DMSO, pre-diluted in PBS (0.45% final DMSO concentration), and added in the respective dilution 5 h after the addition of the transfection mixture onto the cells. The cells were again incubated for additional 16 h before firefly and renilla luciferases activity was measured sequentially in the same cell extract using buffers according to established protocols (Promega AG, Dübendorf, Switzerland). Transfection efficiency was controlled to the pRL-TK renilla luciferase reporter expression.
An EC50 of 12 nM was found for `CC/C(=C\C=C\C(O)(C(F)(F)F)C(F)(F)F)c1cccc(CCc2ccc(C(O)CCO)cc2)c1` (racemic) [I-b, 1-(4-(3-((3E,5E)-8,8,8-trifluoro-7-hydroxy-7-(trifluoromethyl)octa-3,5-dien-3-yl)phenethyl)phenyl)propane-1,3-diol] in this work. An EC50 of 13 nM was found for `CC/C(=C\C=C\C(O)(CC)CC)c1cccc(CCc2ccc(C(O)CCO)cc2)c1` (racemic) [I-c, 1-(4-(3-((3E,5E)-7-ethyl-7-hydroxynona-3,5-dien-3-yl)phenethyl)phenyl)propane-1,3-diol] in this work. An EC50 of 111 nM was found for `CC/C(=C\C=C\C(O)(CC)CC)c1cccc(CCc2ccc(C(O)C(CO)CCCCO)cc2)c1` (stereo not shown) [Comp1, reference compound] in this work. An EC50 of 4 nM was found for `CC/C(=C\C=C\C(O)(CC)CC)c1cccc(CCc2ccc(C(O)CC(C)O)cc2)c1` (stereo not shown) [I-a, 1-(4-(3-((3E,5E)-7-ethyl-7-hydroxynona-3,5-dien-3-yl)phenethyl)phenyl)butane-1,3-diol] in this work. An EC50 of 28 nM was found for `CC/C(=C\C=C\C(O)(CC)CC)c1cccc(CCc2ccc(C(O)C(C)CO)cc2)c1` (stereo not shown) [I-d, 1-(4-(3-((3E,5E)-7-ethyl-7-hydroxynona-3,5-dien-3-yl)phenethyl)phenyl)-2-methylpropane-1,3-diol] in this work. An EC50 of 30 nM was found for `CC/C(=C\C=C\C(O)(CC)CC)c1cccc(CCc2ccc(C(O)C(CO)CCCO)cc2)c1` (stereo not shown) [I-e, 1-(4-(3-((3E,5E)-7-ethyl-7-hydroxynona-3,5-dien-3-yl)phenethyl)phenyl)-2-(hydroxymethyl)pentane-1,5-diol] in this work. An EC50 of 34 nM was found for `CC/C(=C\C=C\C(O)(CC)CC)c1cccc(CCc2ccc(C(O)C(C)C(C)O)cc2)c1` (stereo not shown) [I-f, 1-(4-{2-[3-((1E,3E)-1,5-Diethyl-5-hydroxy-hepta-1,3-dienyl)-phenyl]-ethyl}-phenyl)-2-methylbutane-1,3-diol] in this work.
